Data published in patent US11655450B2, “Method for inducing differentiation of stem cell into dopaminergic neural precursor cell” (S-BIOMEDICS, priority 2019, dated 2023).

Tests used:
[1] = test system: FOXA2 and/or LMX1A; experiment: Immunocytochemistry of FOXA2 and/or LMX1A expression during differentiation into dopaminergic neural precursor cells; type: cell-based, human
Protocol: Cells were fixed for 10 min in a 4% paraformaldehyde solution.
In order to smoothly penetrate into the cytoplasm, […] incubated with 0.1% Trition X-100 (in PBS) for 15 min and then with 2% bovine serum albumin (BSA, in PBS) for 1 hour at room temperature.
Subsequently, the primary antibodies (see Table 1, below) were allowed to bind to the cells at 4° C. Secondary antibodies suitable for the respective primary antibody species (see Table 1, below) were used to confirm the primary antibody-bound cells.
Finally, cell nuclei were imaged. In this regard, the cells were incubated with 4′, […] (DAPI) in PBS for 10 min to stain the nuclei which were then imaged under a fluorescence microscope. Important markers were identified and analyzed.
The cells were differentiated into dopaminergic neural precursor cells in the same manner as the method of the present invention, with the exception of treating the cells with SAG and CHIR99021 at respective concentrations of 0.5 μM and 1.0 μM, or 1.0 μM and 1.5 μM, instead of 1.0 μM and 2.0 μM. With the expression of FOXA2 and/or LMX1A, this method was compared to the method of the present disclosure.

[2] = test system: stem cells; experiment: Cell adhesion test with ECM; type: cell-based, human
Protocol: With respect to CELLstart and various concentrations (2-7 μg/mL) of ECM (Laminin 521), stem cells were cultured using the same protocol as in the above Examples to conduct a cell adhesion test.

Cc1c[nH]c(-c2cnc(NCCNc3ccc(C#N)cn3)nc2-c2ccc(Cl)cc2Cl)n1 [CHIR99021, 6-[[2-[[4-(2,4-dichlorophenyl)-5-(5-methyl-1H-imidazol-2-yl)-2-pyrimidinyl]amino]ethyl]amino]-3-pyridinecarbonitrile]
expression of LMX1A and En-1 ([1]; markers for dopaminergic neural precursor cells, as illustrated in the Example section): upregulate the expression of LMX1A and En-1

CNC1CCC(N(Cc2cccc(-c3ccncc3)c2)C(=O)c2sc3ccccc3c2Cl)CC1.Cl.Cl.O.O (centres unmarked) [SAG]
expression of FOXA2 ([1]; marker for dopaminergic neural precursor cells, as explained in the Example section): upregulate the expression of FOXA2

Laminin-521: ECM (Laminin 521) used to coat culture dishes
cell adhesion ([2]; 2 μg/mL and 3 μg/mL): too poor adhesion to conduct the test
cell adhesion ([2]; 4 μg/mL and 5 μg/mL): relatively high adhesion
cell state on ECM ([2]; 6 μg/mL and 7 μg/mL): spontaneous differentiation at high frequency
